The results in this text go back to patent publication US20230365556A1, “N-ACYL AMINO ACID COMPOUNDS AND METHODS OF USE” (Pliant Therapeutics, Inc., priority 2016, published 2023).

Structures can show the parent of a compound that is named as a salt. Some results are limits rather than exact numbers.

αvβ1 integrin (αvβ1 expressing CHO cells), sequence (P06756 31-889): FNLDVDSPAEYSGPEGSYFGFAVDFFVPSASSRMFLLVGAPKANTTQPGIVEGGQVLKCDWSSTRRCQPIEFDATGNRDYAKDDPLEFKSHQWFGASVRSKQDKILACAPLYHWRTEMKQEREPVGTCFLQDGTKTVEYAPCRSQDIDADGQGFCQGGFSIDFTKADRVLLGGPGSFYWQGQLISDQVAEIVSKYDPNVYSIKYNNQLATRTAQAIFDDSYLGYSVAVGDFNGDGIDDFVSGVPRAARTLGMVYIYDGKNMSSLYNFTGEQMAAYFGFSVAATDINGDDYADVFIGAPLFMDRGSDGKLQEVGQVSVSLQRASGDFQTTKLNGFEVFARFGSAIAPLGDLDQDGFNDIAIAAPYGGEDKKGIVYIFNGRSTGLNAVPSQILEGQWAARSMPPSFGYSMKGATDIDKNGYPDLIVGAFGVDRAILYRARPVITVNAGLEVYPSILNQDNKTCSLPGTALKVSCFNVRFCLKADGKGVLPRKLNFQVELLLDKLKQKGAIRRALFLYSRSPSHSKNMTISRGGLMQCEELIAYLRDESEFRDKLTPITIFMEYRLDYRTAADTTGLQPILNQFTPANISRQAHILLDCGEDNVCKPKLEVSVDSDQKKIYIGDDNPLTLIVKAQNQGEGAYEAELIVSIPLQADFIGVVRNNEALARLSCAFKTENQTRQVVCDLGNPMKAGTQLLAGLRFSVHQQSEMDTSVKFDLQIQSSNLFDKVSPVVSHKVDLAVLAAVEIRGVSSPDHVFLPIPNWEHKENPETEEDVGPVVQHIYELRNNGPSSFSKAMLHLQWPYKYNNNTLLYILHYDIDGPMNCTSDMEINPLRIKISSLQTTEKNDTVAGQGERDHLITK
αvβ1 integrin (αvβ1 expressing CHO cells), sequence (P06756 891-1048 partner): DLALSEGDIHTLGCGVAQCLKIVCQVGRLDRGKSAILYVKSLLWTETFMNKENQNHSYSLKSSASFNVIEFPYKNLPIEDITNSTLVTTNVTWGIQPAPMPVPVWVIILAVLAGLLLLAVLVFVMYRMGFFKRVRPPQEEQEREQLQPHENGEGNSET
αvβ1 integrin (αvβ1 expressing CHO cells), sequence (P05556 21-798): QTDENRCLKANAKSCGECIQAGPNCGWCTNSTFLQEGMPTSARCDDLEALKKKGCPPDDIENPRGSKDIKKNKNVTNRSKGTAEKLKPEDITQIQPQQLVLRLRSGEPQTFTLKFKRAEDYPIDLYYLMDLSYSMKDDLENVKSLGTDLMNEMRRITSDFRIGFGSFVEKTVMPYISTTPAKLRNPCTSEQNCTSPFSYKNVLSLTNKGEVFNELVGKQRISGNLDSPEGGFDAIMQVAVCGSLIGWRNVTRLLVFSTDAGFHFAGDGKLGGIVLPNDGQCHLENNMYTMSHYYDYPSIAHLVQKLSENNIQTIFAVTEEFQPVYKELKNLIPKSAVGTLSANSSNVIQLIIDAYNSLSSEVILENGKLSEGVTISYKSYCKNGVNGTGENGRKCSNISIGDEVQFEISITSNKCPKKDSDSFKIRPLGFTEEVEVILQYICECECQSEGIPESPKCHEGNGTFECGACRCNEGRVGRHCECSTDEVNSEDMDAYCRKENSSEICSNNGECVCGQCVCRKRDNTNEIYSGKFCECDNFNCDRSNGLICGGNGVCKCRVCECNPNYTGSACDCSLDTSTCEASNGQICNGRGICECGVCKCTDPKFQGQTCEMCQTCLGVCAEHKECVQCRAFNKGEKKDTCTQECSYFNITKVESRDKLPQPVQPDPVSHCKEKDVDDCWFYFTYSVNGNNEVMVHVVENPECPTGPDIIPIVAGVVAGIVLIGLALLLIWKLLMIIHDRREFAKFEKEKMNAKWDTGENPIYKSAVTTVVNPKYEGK

For the assay, the target named is αvβ1 integrin (αvβ1 expressing CHO cells) (Homo sapiens (Human), UniProt P05556+P06756). In words: Cell adhesion assay: inhibition of αvβ1 expressing CHO cells attaching to TGFβ1LAP. In kind it is cell-based. The following applies: 1 h at 37° C., crystal violet absorbance 595 nm, read-out: αvβ1 Inhibition IC50 (nM)-range. The protocol:
Example B1—Cell Adhesion Assay
In order to determine the potency, the compounds were assessed for their ability to inhibit αvβ1 expressing CHO cells attach to TGFβ1LAP. Microplates were coated overnight with 2 ug/ml TGFβ1LAP at 4° C., and blocked with 2% BSA/PBS for 30 min before the assay. Cells were detached and washed in PBS. After that the cells were resuspended in DMEM at 1.0×10^6 cells/ml, fifty microliter of cell suspension and fifty microliter of compound solution were added into the plate. The plates were incubated for one hour at 37° C. in humidified 5% carbon dioxide. Non-adherent cells were removed by centrifugation top side down at 58 g for 5 min. The attached cells were fixed and stained with 0.5% crystal violet (in 20% methanol and 1% formaldehyde) and the wells washed with PBS. Crystal violet was dissolved in 2% Triton-X in PBS. The relative number of cells in each well was evaluated by the absorbance at 595 nm in a microplate reader (Tecan). IC50 values were determined by non-linear regression with four parameters (Graphpad Prism 7.01, Y=Bottom+(Top−Bottom)/(1+10^((Log IC50−X)*HillSlope)).
The compounds tested were compound samples prepared according to procedures described in the Synthetic Examples section, with the stereochemical purity as indicated in the Examples indicated for Example or Compound No. 1-62. The compounds tested were predominantly S-configuration at the alpha carbon of the amino acid scaffold, except for compounds 123, 124, and 125 which were predominantly R-configuration at the alpha carbon of the amino acid scaffold. “Example or Compound No.” in Table B-1 refers to the compound illustrated in the examples for Example or Compound Nos. 1-62 (the compounds of Examples 1-62 are labeled as Compounds 1-62 in Table 1). “Example or Compound No.” in Table B-1 refers to the compound number as indicated in Table 1 or Table 2 for Example or Compound Nos. 63-126.
On to `O=C(N[C@@H](CCCCCCCCNC1=NCCO1)C(=O)O)c1c(Cl)cccc1Cl` [Example 48, (S)-2-(2,6-dichlorobenzamido)-10-((4,5-dihydrooxazol-2-yl)amino)decanoic acid], for which the IC50 was more than 1000 nM.
With `Cc1nccc(C(=O)N[C@@H](Cc2ccc(OCCCc3ccc4c(n3)NCCC4)cc2)C(=O)O)n1` [Example 8, (S)-2-(2-methylpyrimidine-4-carboxamido)-3-(4-(3-(5,6,7,8-tetrahydro-1,8-naphthyridin-2-yl)propoxy)phenyl)propanoic acid] the figure was 50 to 250 nM; with `O=C(N[C@@H](CCCCCCCCNC1=NCCNC1)C(=O)O)c1c(Cl)cccc1Cl` [Example 47, (S)-2-(2,6-dichlorobenzamido)-10-((3,4,5,6-tetrahydropyrazin-2-yl)amino)decanoic acid], more than 1000 nM.
With `O=C(N[C@@H](Cc1ccc(OCCCc2ccc3c(n2)NCCC3)cc1)C(=O)O)c1ccc(C2CC2)cc1` [Example 34, (2S)-2-[(4-cyclopropylbenzoyl)amino]-3-[4-[3-(5,6,7,8-tetrahydro-1,8-naphthyridin-2-yl)propoxy]phenyl]propanoic acid] the figure was less than 50 nM; with `O=C(N[C@@H](CCCCCCCCNC1=NCCCO1)C(=O)O)c1c(Cl)cccc1Cl` [Example 51, (S)-2-(2,6-dichlorobenzamido)-10-((5,6-dihydro-4H-1,3-oxazin-2-yl)amino)decanoic acid], more than 1000 nM; with `O=C(NC(CN1CC(OCCCc2ccc3c(n2)NCCC3)C1)C(=O)O)c1c(Cl)cccc1Cl` (stereo not shown) [Compound 74, 2-(2,6-dichlorobenzamido)-3-(3-(3-(5,6,7,8-tetrahydro-1,8-naphthyridin-2-yl)propoxy)azetidin-1-yl)propanoic acid], 250 to 1000 nM.
To `O=C(NC(Cc1ccc(COC2CCC(Nc3ccccn3)CC2)cc1)C(=O)O)c1c(Cl)cccc1Cl` [Example 31, (S)-2-(2,6-dichlorobenzamido)-3-(4-((((1s,4R)-4-(pyridin-2-ylamino)cyclohexyl)oxy)methyl)phenyl)propanoic acid trifluoroacetate] belongs 50 to 250 nM; to `O=C(NC(CCCCCCCc1ccc2c(n1)NCCC2)C(=O)O)c1ccc2cn[nH]c2c1` (stereo not shown) [Compound 98], 50 to 250 nM.
With `O=C(N[C@@H](Cc1ccc(OCCCC2CCc3cccnc3N2)cc1)C(=O)O)c1c(Cl)cccc1Cl` (stereo partly drawn) [Example 27, (2S)-2-(2,6-dichlorobenzamido)-3-(4-(3-(1,2,3,4-tetrahydro-1,8-naphthyridin-2-yl)propoxy)phenyl)propanoic acid], the IC50 is less than 50 nM.
As for `O=C(N[C@@H](Cc1ccc(OCCCc2ccc3c(n2)NCCC3)cc1)C(=O)O)c1c(F)cccc1C(F)(F)F` [Example 6, (S)-2-(2-fluoro-6-(trifluoromethyl)benzamido)-3-(4-(3-(5,6,7,8-tetrahydro-1,8-naphthyridin-2-yl)propoxy)phenyl)propanoic acid], the IC50 is less than 50 nM.
To `O=C(N[C@@H](Cc1ccc(OCCCc2ccc3c(n2)NCCC3)cc1)C(=O)O)c1cnc(C(F)F)cn1` [Example 3, (S)-2-(5-(difluoromethyl)pyrazine-2-carboxamido)-3-(4-(3-(5,6,7,8-tetrahydro-1,8-naphthyridin-2-yl)propoxy)phenyl)propanoic acid] belongs less than 50 nM; to `O=C(N[C@@H](Cc1ccc(OCCCCNC2=NCCS2)cc1)C(=O)O)c1c(Cl)cccc1Cl` [Example 62, (S)-2-(2,6-dichlorobenzamido)-3-(4-(4-((4,5-dihydrothiazol-2-yl)amino)butoxy)phenyl)propanoic acid], less than 50 nM; to `CC(OCCc1ccc2c(n1)NCCC2)c1ccc(C[C@H](NC(=O)c2c(Cl)cccc2Cl)C(=O)O)cc1` (stereo partly drawn) [Example 33, (2S)-2-(2,6-dichlorobenzamido)-3-(4-(1-(2-(5,6,7,8-tetrahydro-1,8-naphthyridin-2-yl)ethoxy)ethyl)phenyl)propanoic acid], less than 50 nM.
To `O=C(N[C@@H](Cc1ccc(OCCCc2ccc3c(n2)NCCC3)cc1)C(=O)O)c1ccc2ocnc2c1` [Example 10, (S)-2-(benzo[d]oxazole-5-carboxamido)-3-(4-(3-(5,6,7,8-tetrahydro-1,8-naphthyridin-2-yl)propoxy)phenyl)propanoic acid] belongs less than 50 nM.
To `Cn1cc2cc(C(=O)N[C@@H](CCCCCCCc3ccc4c(n3)NCCC4)C(=O)O)ccc2n1` [Compound 109] belongs 50 to 250 nM; to `CN1CC(NCCCCCCCC[C@H](NC(=O)c2c(Cl)cccc2Cl)C(=O)O)=NCC1=O` [Example 52, (S)-2-(2,6-dichlorobenzamido)-10-((4-methyl-5-oxo-3,4,5,6-tetrahydropyrazin-2-yl)amino)decanoic acid], more than 1000 nM; to `O=C(N[C@@H](Cc1ccc(OCCCc2ccc3c(n2)NCCC3)cc1)C(=O)O)c1c(Cl)cncc1Cl` [Example 15, (S)-2-(3,5-dichloroisonicotinamido)-3-(4-(3-(5,6,7,8-tetrahydro-1,8-naphthyridin-2-yl)propoxy)phenyl)propanoic acid], less than 50 nM.
As for `Cn1ncc2c(C(=O)N[C@@H](CCCCCCCc3ccc4c(n3)NCCC4)C(=O)O)cccc21` [Compound 115], the IC50 fell in the range of 250 to 1000 nM.
With `CN1C(=O)CN=C1NCCCCCCCC[C@H](NC(=O)c1c(Cl)cccc1Cl)C(=O)O` [Example 50, (S)-2-(2,6-dichlorobenzamido)-10-((1-methyl-5-oxo-4,5-dihydro-1H-imidazol-2-yl)amino)decanoic acid] the figure was more than 1000 nM; with `O=C(N[C@@H](Cc1ccc(OCCCCNC2=NCCNC2)cc1)C(=O)O)c1c(Cl)cccc1Cl` [Example 56, (S)-2-(2,6-dichlorobenzamido)-3-(4-(4-((3,4,5,6-tetrahydropyrazin-2-yl)amino)butoxy)phenyl)propanoic acid], 250 to 1000 nM; with `O=C(N[C@@H](Cc1ccc(OCCCc2ccc3c(n2)NCCC3)cc1)C(=O)O)c1cncc(-c2ccccc2)n1` [Example 4, (S)-2-(6-phenylpyrazine-2-carboxamido)-3-(4-(3-(5,6,7,8-tetrahydro-1,8-naphthyridin-2-yl)propoxy)phenyl)propanoic acid], more than 1000 nM.
With `N#Cc1ccc(C(=O)N[C@@H](CCCCCCCc2ccc3c(n2)NCCC3)C(=O)O)c(F)c1` [Compound 101] the figure was less than 50 nM; with `O=C(NC(Cc1ccc(OCC2CCC(Nc3ccccn3)CC2)cc1)C(=O)O)c1c(Cl)cccc1Cl` [Example 25, (S)-2-(2,6-dichlorobenzamido)-3-(4-(((1s,4R)-4-(pyridin-2-ylamino)cyclohexyl)methoxy)phenyl)propanoic acid], 50 to 250 nM.
Turning to `O=C(N[C@@H](Cc1ccc(OCC2(CNc3ccccn3)CC2)cc1)C(=O)O)c1c(Cl)cccc1Cl` [Example 46, (2S)-2-((2,6-dichlorobenzoyl)amino)-3-(4-((1-((2-pyridylamino)methyl)cyclopropyl)methoxy)phenyl)propanoic acid], the IC50 is 50 to 250 nM.
To `O=C(N[C@@H](Cc1ccc(OCCCc2ccc3c(n2)NCCC3)cc1)C(=O)O)c1ccc2[nH]ncc2c1` [Example 42, (2S)-2-(1H-indazole-5-carbonylamino)-3-[4-[3-(5,6,7,8-tetrahydro-1,8-naphthyridin-2-yl)propoxy]phenyl]propanoic acid] belongs less than 50 nM; to `Cn1cc2ccc(C(=O)N[C@@H](Cc3ccc(OCCCc4ccc5c(n4)NCCC5)cc3)C(=O)O)cc2n1` [Example 44, (2S)-2-[(2-methylindazole-6-carbonyl)amino]-3-[4-[3-(5,6,7,8-tetrahydro-1,8-naphthyridin-2-yl)propoxy]phenyl]propanoic acid], less than 50 nM.
Take `O=C(N[C@@H](CCCCCCCCNC1=NCCS1)C(=O)O)c1c(Cl)cccc1Cl` [Example 49, (S)-2-(2,6-dichlorobenzamido)-10-((4,5-dihydrothiazol-2-yl)amino)decanoic acid]: the IC50 is 50 to 250 nM.
Turning to `O=C(NC(Cc1ccc(OCC2CC(Nc3ccccn3)C2)cc1)C(=O)O)c1c(Cl)cccc1Cl` [Example 23, (S)-2-(2,6-dichlorobenzamido)-3-(4-(((1s,3R)-3-(pyridin-2-ylamino)cyclobutyl)methoxy)phenyl)propanoic acid], the IC50 is less than 50 nM.
On to `O=C(N[C@@H](CCCCCCCc1ccc2c(n1)NCCC2)C(=O)O)c1ccc(-c2cccnc2)cc1` [Compound 111], for which the IC50 was 250 to 1000 nM.
With `O=C(N[C@@H](Cc1ccc(OCCCCNC2=NCCCO2)cc1)C(=O)O)c1c(Cl)cccc1Cl` [Example 59, (S)-2-(2,6-dichlorobenzamido)-3-(4-(4-((5,6-dihydro-4H-1,3-oxazin-2-yl)amino)butoxy)phenyl)propanoic acid] the figure was more than 1000 nM; with `O=C(N[C@@H](Cc1ccc(COCCCNc2ccccn2)cc1)C(=O)O)c1c(Cl)cccc1Cl` [Example 30, (S)-2-(2,6-dichlorobenzamido)-3-(4-((3-(pyridin-2-ylamino)propoxy)methyl)phenyl) propanoic acid trifluoroacetate], 250 to 1000 nM.
